From the supplement of paper PMC13380429

Key:
Settings in all cases: 72 h
Caco-2 [1] = experiment: cell viability relative to DMSO; higher = less toxic
Calu-3 [2] = experiment: as above
U2OS [3] = experiment: as above
HepG2 [4] = experiment: as above
Vero E6 [5] = experiment: as above
Calu-3 [6] = experiment: relative viability EC50 (midpoint between 100% and the lowest measured viability); higher = less toxic
U2OS [7] = experiment: as above
HepG2 [8] = experiment: as above
Vero E6 [9] = experiment: as above
Caco-2 [10] = experiment: drug sensitivity score (DSS) for viability; higher = more toxic; extreme values may be limits of the assay
Calu-3 [11] = experiment: as above
U2OS [12] = experiment: as above
HepG2 [13] = experiment: as above
Vero E6 [14] = experiment: as above

SMILES | cell viability (Caco-2 [1]; 1 nM) [%] | cell viability (Caco-2 [1]; 10 nM) [%] | cell viability (Caco-2 [1]; 100 nM) [%] | cell viability (Caco-2 [1]; 1000 nM) [%] | cell viability (Caco-2 [1]; 10000 nM) [%] | cell viability (Calu-3 [2]; 1 nM) [%] | cell viability (Calu-3 [2]; 10 nM) [%] | cell viability (Calu-3 [2]; 100 nM) [%] | cell viability (Calu-3 [2]; 1000 nM) [%] | cell viability (Calu-3 [2]; 10000 nM) [%] | cell viability (U2OS [3]; 1 nM) [%] | cell viability (U2OS [3]; 10 nM) [%] | cell viability (U2OS [3]; 100 nM) [%] | cell viability (U2OS [3]; 1000 nM) [%] | cell viability (U2OS [3]; 10000 nM) [%] | cell viability (HepG2 [4]; 1 nM) [%] | cell viability (HepG2 [4]; 10 nM) [%] | cell viability (HepG2 [4]; 100 nM) [%] | cell viability (HepG2 [4]; 1000 nM) [%] | cell viability (HepG2 [4]; 10000 nM) [%] | cell viability (Vero E6 [5]; 1 nM) [%] | cell viability (Vero E6 [5]; 10 nM) [%] | cell viability (Vero E6 [5]; 100 nM) [%] | cell viability (Vero E6 [5]; 1000 nM) [%] | cell viability (Vero E6 [5]; 10000 nM) [%] | relative viability EC50 (Calu-3 [6]) [µM] | relative viability EC50 (U2OS [7]) [µM] | relative viability EC50 (HepG2 [8]) [nM] | relative viability EC50 (Vero E6 [9]) [µM] | drug sensitivity score (Caco-2 [10]) | drug sensitivity score (Calu-3 [11]) | drug sensitivity score (U2OS [12]) | drug sensitivity score (HepG2 [13]) | drug sensitivity score (Vero E6 [14])
COc1cc2ncnc(Nc3ccc(Cl)cc3F)c2cc1OC | 91.1 | 91.6 | 88.6 | 81.5 | 62.4 | 96.2 | 103 | 90.2 | 61.1 | 22.6 | 97.3 | 98.5 | 99.4 | 96.3 | 84.1 | 99.1 | 107 | 89.4 | 109 | 87.1 | 100 | 99.2 | 87.7 | 66.8 | 48.6 | 0.903 | > 10 | > 10000 | 0.434 | 4.7 | 9 | 0.7 | 0 | 7.4
Cc1c(C(=O)NCCCO)cnn1-c1nc(-c2cccc(C(F)(F)F)c2)cs1 | 93.5 | 91.4 | 96.1 | 102 | 67.1 | 107 | 102 | 112 | 104 | 94.3 | 101 | 103 | 93.3 | 98.1 | 83.9 | 99.3 | 91.1 | 96 | 106 | 52.9 | 98.1 | 95.9 | 102 | 97.7 | 90.3 | > 10 | > 10 | – | > 10 | 1.4 | 0 | 0.5 | 2.1 | 0
NC1(C(=O)N[C@@H](CCO)c2ccc(Cl)cc2)CCN(c2ncnc3[nH]ccc23)CC1 [AZD5363] | 100 | 102 | 93.3 | 74.8 | 54.6 | 113 | 101 | 102 | 85.6 | 75.6 | 97.4 | 94.7 | 92.5 | 90.9 | 57.5 | 99.3 | 101 | 93.8 | 84.8 | 66.6 | 98.7 | 99.9 | 96.4 | 94.8 | 90.8 | > 10 | – | – | > 10 | 5.3 | 2.5 | 3.6 | 3 | 0
CC1(C)CC(Oc2ccc(-c3ccc(-c4cn[nH]c4)cc3O)nn2)CC(C)(C)N1 [LMI070] | 95.1 | 108 | 106 | 94.6 | 72.5 | 96.7 | 97.1 | 92.7 | 74.5 | 85.4 | 96.4 | 102 | 103 | 93.5 | 6.6 | 107 | 104 | 110 | 51.8 | 12.4 | 101 | 102 | 104 | 48.5 | 5.1 | – | 2.6 | 926 | 0.935 | 2 | 2.9 | 6.2 | 10.7 | 11.5
CC[N+](CC)(CC)CCOc1ccc(/C=C/c2ccccc2)cc1 [MG-624] | 101 | 100 | 93.6 | 89.3 | 68.7 | 101 | 103 | 94.3 | 95.4 | 93.3 | 101 | 103 | 100 | 104 | 93 | 106 | 102 | 102 | 99.3 | 78.9 | 97.9 | 91 | 88.6 | 97.8 | 97.4 | > 10 | > 10 | > 10000 | > 10 | 2.3 | 0 | 0 | 0.7 | 0
CCOc1cc(C(C)(C)C)ccc1C1=N[C@@](C)(c2ccc(Cl)cc2)[C@@](C)(c2ccc(Cl)cc2)N1C(=O)N1CCN(CCCS(C)(=O)=O)CC1 [RG7112] | 101 | 95.9 | 104 | 94.5 | 56.6 | 98 | 94.6 | 101 | 89 | 77.5 | 97.6 | 98.1 | 96.9 | 80.5 | 44.7 | 95.1 | 102 | 86.3 | 35.2 | 20.6 | 106 | 107 | 99.3 | 78.1 | 28.8 | > 10 | 1.34 | 327 | 1.38 | 3.1 | 2 | 5.5 | 13.7 | 7.1
O=C1N=C(NCc2cccs2)S/C1=C\c1ccc2ncccc2c1 [Ro-3306] | 89.1 | 105 | 97.2 | 100 | 74.2 | 101 | 113 | 94 | 103 | 104 | 97.9 | 98.5 | 97.1 | 98.3 | 81.1 | 93.2 | 77.7 | 90.2 | 62.2 | 51 | 97 | 97.4 | 98.5 | 93.8 | 80.9 | > 10 | > 10 | – | > 10 | 1 | 0 | 0.7 | 9.2 | 1.1
CCOc1cc(C(=O)Nc2ccc(Cl)c(-c3nc4ccccc4[nH]3)c2)cc(OCC)c1OCC [SANT-2] | 94.6 | 102 | 89.4 | 91.6 | 57.8 | 103 | 111 | 97.5 | 94 | 75.7 | 94.2 | 98.8 | 98.3 | 103 | 90 | 102 | 94.4 | 99.6 | 90.9 | 71.5 | 97.4 | 93.7 | 99.4 | 95.2 | 92.6 | > 10 | > 10 | – | > 10 | 3.4 | 1.7 | 0 | 2.5 | 0
COc1cc2c(cc1OC)CN(C(=O)/C=C/c1c(-c3ccccc3)n(C)c3ncccc13)CC2 [SIS3] | 93.9 | 94.5 | 88.8 | 96.5 | 71.1 | – | – | – | – | – | 99 | 101 | 94.9 | 99.9 | 96.2 | 98.9 | 106 | 106 | 106 | 106 | 100 | 93.3 | 98.8 | 98.2 | 100 | – | > 10 | > 10000 | > 10 | 1.8 | – | 0 | 0 | 0
C[C@]12CC[C@H]3[C@@H](CCC4=CC(=O)CC[C@@]43C)[C@@H]1CC[C@@H]2O [TESTOSTERONE] | 104 | 97.6 | 70.8 | 72.6 | 79.9 | 95.2 | 99.1 | 102 | 95.3 | 92.3 | 102 | 92.4 | 98.7 | 100 | 94.6 | 81 | 91.7 | 104 | 104 | 95.1 | 97.6 | 103 | 98.7 | 108 | 87.9 | > 10 | > 10 | > 10000 | > 10 | 8.9 | 0 | 0 | 0 | 0
Cc1c2oc3c(C)ccc(C(=O)N[C@@H]4C(=O)N[C@@H](C(C)C)C(=O)N5CCC[C@H]5C(=O)N(C)CC(=O)N(C)[C@@H](C(C)C)C(=O)O[C@@H]4C)c3nc-2c(C(=O)N[C@@H]2C(=O)N[C@@H](C(C)C)C(=O)N3CCC[C@H]3C(=O)N(C)CC(=O)N(C)[C@@H](C(C)C)C(=O)O[C@@H]2C)c(N)c1=O [actinomycin-d] | 95.6 | 77.5 | 58.6 | 61 | 65.9 | 102 | 71.4 | 31.7 | 24.5 | 36.7 | 105 | 65.9 | 31.5 | 0.7 | 1 | 113 | 41.4 | 15.9 | 3.1 | 5.1 | 101 | 102 | 79.5 | 6.9 | 7.9 | 0.0152 | 0.0296 | 8.5 | 0.166 | 15.2 | 25.9 | 29.2 | 36.5 | 20.1
Cc1nc(NC(=O)N2CCC[C@H]2C(N)=O)sc1-c1ccnc(C(C)(C)C(F)(F)F)c1 [alpelisib] | 107 | 102 | 89.8 | 91.5 | 52.3 | 87.4 | 93.8 | 88.4 | 60.8 | 25.7 | 102 | 93.3 | 96.8 | 89.9 | 73.7 | 102 | 99.7 | 89.6 | 71 | 60.1 | 104 | 104 | 98.4 | 94.7 | 80.3 | 0.743 | – | – | > 10 | 3.9 | 9.2 | 1.8 | 6.1 | 1.2
COc1ccccc1OCCNCC(O)COc1cccc2[nH]c3ccccc3c12 (stereo not drawn) [carvedilol] | – | – | – | – | – | 97 | 92.2 | 102 | 89.2 | 97.4 | 96.4 | 100 | 103 | 93.1 | 92.3 | 99.3 | 108 | 88.7 | 100 | 86.6 | 100 | 102 | 94.2 | 107 | 94.7 | > 10 | > 10 | > 10000 | > 10 | – | 0 | 0 | 0.1 | 0
Clc1ccccc1C(c1ccccc1)(c1ccccc1)n1ccnc1 [clotrimazole] | 96 | 97.1 | 96.2 | 91.9 | 71 | 94.7 | 102 | 92.9 | 96.4 | 94 | 104 | 104 | 95.9 | 99.5 | 72 | 96.9 | 98 | 114 | 99.8 | 56.9 | 93.8 | 95.3 | 100 | 99.2 | 89.9 | > 10 | – | – | > 10 | 2.2 | 0 | 1.2 | 2.2 | 0
